According to PubChem BioAssay AID2060609 (Molecular Pharmacology Branch, DTP, NCI, 2025):

Tested on: 855422-203-R-J1-PDC complex spheroids, viability
Test: Anticancer human tumor 855422-203-R-J1-PDC patient-derived bladder carcinoma cell line growth inhibition [CLK]
Conditions: for IC50: curve of first compound; for viability, T/C: stronger effect = lower value
Procedure, shortened: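 Multi-cell-type spheroids combined patient-derived tumor cells with HUVEC endothelial cells and human mesenchymal stem cells. Paired agents were dosed in half-log steps down from about clinical Cmax, or from 10 microM where Cmax was unknown.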

[1] = second compound 0.0316 µM, first compound 0.0316 µM
[2] = second compound 0.0316 µM, first compound 0.1 µM
[3] = second compound 0.0316 µM, first compound 0.316 µM
[4] = second compound 0.0316 µM, first compound 1 µM
[5] = second compound 0.0316 µM, first compound 3.16 µM
[6] = second compound 0.0316 µM, first compound 10 µM
[7] = second compound 0.1 µM, first compound 0.0316 µM
[8] = second compound 0.1 µM, first compound 0.1 µM
[9] = second compound 0.1 µM, first compound 0.316 µM
[10] = second compound 0.1 µM, first compound 1 µM
[11] = second compound 0.1 µM, first compound 3.16 µM
[12] = second compound 0.1 µM, first compound 10 µM
[13] = second compound 0.316 µM, first compound 0.0316 µM
[14] = second compound 0.316 µM, first compound 0.1 µM
[15] = second compound 0.316 µM, first compound 0.316 µM
[16] = second compound 0.316 µM, first compound 1 µM
[17] = second compound 0.316 µM, first compound 3.16 µM
[18] = second compound 0.316 µM, first compound 10 µM
[19] = second compound 1 µM, first compound 0.0316 µM
[20] = second compound 1 µM, first compound 0.1 µM
[21] = second compound 1 µM, first compound 0.316 µM
[22] = second compound 1 µM, first compound 1 µM
[23] = second compound 1 µM, first compound 3.16 µM
[24] = second compound 1 µM, first compound 10 µM
[25] = second compound 3.16 µM, first compound 0.0316 µM
[26] = second compound 3.16 µM, first compound 0.1 µM
[27] = second compound 3.16 µM, first compound 0.316 µM
[28] = second compound 3.16 µM, first compound 1 µM
[29] = second compound 3.16 µM, first compound 3.16 µM
[30] = second compound 3.16 µM, first compound 10 µM
[31] = second compound 10 µM, first compound 0.0316 µM
[32] = second compound 10 µM, first compound 0.1 µM
[33] = second compound 10 µM, first compound 0.316 µM
[34] = second compound 10 µM, first compound 1 µM
[35] = second compound 10 µM, first compound 3.16 µM
[36] = second compound 10 µM, first compound 10 µM
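Further: spheroids exposed to drugs for seven days before readout.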
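Wherever viability, T/C is given: 100% = DMSO vehicle control wells.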

Q: With `C#Cc1c(F)ccc2cc(O)cc(-c3ncc4c(N5CC6CCC(C5)N6)nc(OCC56CCCN5CC(F)C6)nc4c3F)c12` (centres undefined) + CNC(=O)c1ccc(Nc2nc(OC3CCCC3)c3c(-c4ccc5nc(C)oc5c4)c[nH]c3n2)c(OC)c1 as the compound, how does the IC50 (second compound 0.0316 µM) read?
A: > 10000 nM

Q: What about the IC50 (second compound 0.1 µM) of the same compound?
A: 392 nM

Q: And the IC50 (second compound 0.316 µM)?
A: < 31.6 nM

Q: And the IC50 (second compound 1 µM)?
A: < 31.6 nM

Q: What about the IC50 (second compound 3.16 µM) of the same compound?
A: < 31.6 nM

Q: What about the IC50 (second compound 10 µM) of the same compound?
A: < 31.6 nM

Q: And the viability, T/C [1]?
A: 95.4%

Q: And the viability, T/C [2]?
A: 111%

Q: And the viability, T/C [3]?
A: 100%

Q: What about the viability, T/C [4] of the same compound?
A: 87.2%

Q: What about the viability, T/C [5] of the same compound?
A: 132%

Q: What about the viability, T/C [6] of the same compound?
A: 84.9%

Q: And the viability, T/C [7]?
A: 60.2%

Q: What about the viability, T/C [8] of the same compound?
A: 51.1%

Q: And the viability, T/C [9]?
A: 56.7%

Q: What about the viability, T/C [10] of the same compound?
A: 39.6%

Q: And the viability, T/C [11]?
A: 32.7%

Q: What about the viability, T/C [12] of the same compound?
A: 22%

Q: And the viability, T/C [13]?
A: 21.2%

Q: And the viability, T/C [14]?
A: 24.9%

Q: What about the viability, T/C [15] of the same compound?
A: 24.8%

Q: What about the viability, T/C [16] of the same compound?
A: 22.9%

Q: And the viability, T/C [17]?
A: 24.3%

Q: What about the viability, T/C [18] of the same compound?
A: 21.8%

Q: And the viability, T/C [19]?
A: 19.8%

Q: And the viability, T/C [20]?
A: 21.5%

Q: What about the viability, T/C [21] of the same compound?
A: 19.5%

Q: What about the viability, T/C [22] of the same compound?
A: 22.1%

Q: And the viability, T/C [23]?
A: 23.2%

Q: What about the viability, T/C [24] of the same compound?
A: 19.3%

Q: What about the viability, T/C [25] of the same compound?
A: 20.6%

Q: What about the viability, T/C [26] of the same compound?
A: 18.1%

Q: And the viability, T/C [27]?
A: 17.3%

Q: What about the viability, T/C [28] of the same compound?
A: 22%

Q: What about the viability, T/C [29] of the same compound?
A: 25.4%

Q: What about the viability, T/C [30] of the same compound?
A: 13.3%

Q: What about the viability, T/C [31] of the same compound?
A: 21.8%

Q: What about the viability, T/C [32] of the same compound?
A: 22.4%

Q: And the viability, T/C [33]?
A: 24.1%

Q: What about the viability, T/C [34] of the same compound?
A: 18.9%

Q: What about the viability, T/C [35] of the same compound?
A: 17.3%

Q: What about the viability, T/C [36] of the same compound?
A: 14.8%

Q: `C=C(F)C(=O)N1CCN(c2nc(OCC3CCCN3C)nc3c2CCN(c2cccc4cccc(Cl)c24)C3)CC1CC#N` (centres undefined) + CNC(=O)c1ccc(Nc2nc(OC3CCCC3)c3c(-c4ccc5nc(C)oc5c4)c[nH]c3n2)c(OC)c1 was tested. Which IC50 (second compound 0.0316 µM) did it give?
A: 2500 nM

Q: What about the IC50 (second compound 0.1 µM) of the same compound?
A: < 31.6 nM

Q: What about the IC50 (second compound 0.316 µM) of the same compound?
A: < 31.6 nM

Q: And the IC50 (second compound 1 µM)?
A: < 31.6 nM

Q: What about the IC50 (second compound 3.16 µM) of the same compound?
A: < 31.6 nM

Q: And the IC50 (second compound 10 µM)?
A: < 31.6 nM

Q: What about the viability, T/C [1] of the same compound?
A: 83.1%

Q: What about the viability, T/C [2] of the same compound?
A: 88.6%

Q: And the viability, T/C [3]?
A: 81.8%

Q: What about the viability, T/C [4] of the same compound?
A: 132%

Q: What about the viability, T/C [5] of the same compound?
A: 38.1%

Q: And the viability, T/C [6]?
A: 0.16%

Q: And the viability, T/C [7]?
A: 24.2%

Q: What about the viability, T/C [8] of the same compound?
A: 21%

Q: What about the viability, T/C [9] of the same compound?
A: 23.7%

Q: And the viability, T/C [10]?
A: 27.5%

Q: And the viability, T/C [11]?
A: 10.2%

Q: What about the viability, T/C [12] of the same compound?
A: 0.11%

Q: What about the viability, T/C [13] of the same compound?
A: 16.6%

Q: What about the viability, T/C [14] of the same compound?
A: 19.6%

Q: And the viability, T/C [15]?
A: 19.9%

Q: And the viability, T/C [16]?
A: 18.7%

Q: What about the viability, T/C [17] of the same compound?
A: 10.1%

Q: And the viability, T/C [18]?
A: 0.07%

Q: What about the viability, T/C [19] of the same compound?
A: 21.5%

Q: What about the viability, T/C [20] of the same compound?
A: 15.8%

Q: And the viability, T/C [21]?
A: 19.4%

Q: And the viability, T/C [22]?
A: 18.6%

Q: What about the viability, T/C [23] of the same compound?
A: 8.14%

Q: What about the viability, T/C [24] of the same compound?
A: 0.07%

Q: What about the viability, T/C [25] of the same compound?
A: 18.5%

Q: And the viability, T/C [26]?
A: 14.9%

Q: What about the viability, T/C [27] of the same compound?
A: 14.8%

Q: And the viability, T/C [28]?
A: 20.5%

Q: And the viability, T/C [29]?
A: 9.57%

Q: What about the viability, T/C [30] of the same compound?
A: 1.06%

Q: And the viability, T/C [31]?
A: 18.1%

Q: And the viability, T/C [32]?
A: 21.6%

Q: And the viability, T/C [33]?
A: 21%

Q: What about the viability, T/C [34] of the same compound?
A: 16.9%

Q: What about the viability, T/C [35] of the same compound?
A: 7.87%

Q: What about the viability, T/C [36] of the same compound?
A: 8.64%
